{"source": "patent US9241943B2", "about": "“Oxathiazine derivatives as antibacterial and anticancer agents” (GEISTLICH PHARMA AG, priority 2012, dated 2016)", "key": {"[1]": {"system": "cancers identified herein", "assay": "Administration to patients having cancers (Example 5)", "format": "in vivo, human", "details": "Example 5, written in present tense"}, "[2]": {"system": "human glioma cell line LN-229", "assay": "Cytotoxicity assay (crystal violet) in LN-229 cells", "format": "cell-based", "details": "24 h, high values correspond to high cell viability", "experimental": "Cell lines: The human glioma cell line LN-229 was used as described previously (Rodak et al. 2005) as well as the human colon adenocarcinoma cell line SW480.\nCytotoxicity assay: Dissociated LN-229 cells were seeded into 96-well plates at a density of 10^4 cells per well in 100 μl of culture medium. Approximately 24 h later, when the cells had reached 70-80% confluency, the medium was changed and treatment with compound #2250 (4.0-1000 μg/ml), taurolidine (4.0-1000 μg/ml) or standard medium was started. Triplicate cultures were prepared for each sample. After 24 h of incubation at […], the remaining adherent viable cells were stained using crystal violet as described (Rodack et al. 2005). Cell viability was determined by measuring the absorbancy at 540 nm. The results are expressed as killing rate given by the difference between 100% of cells and percentage of cells surviving. EC50 values correspond to the concentration inducing 50% cell death."}, "[3]": {"system": "human glioma cell line LN-229", "assay": "Cytotoxicity assay (crystal violet) in LN-229 cells", "format": "cell-based"}, "[4]": {"system": "murine SMA 560 bulk glioma cells", "assay": "Cytotoxicity assay in murine SMA 560 bulk glioma cells", "format": "cell-based, mouse", "experimental": "(§1) Tissue samples from high grade gliomas WHO grade IV from newly diagnosed patients (medium age of 54±10 years) were minced mechanically, digested enzymatically and the dissociated cells were filtered. The isolated tumor cells were cultured as bulk cells. Cancer Stem Cells (CSCs) were isolated by the formation of neurospheres under neurosphere conditions (using neurobasal medium) from the murine SMA 560 glioma cell line or from freshly isolated human glioblastoma cells.\nBulk glioma tumor cells were cultured and incubated with taurolidine or taurultam for 24h or 48h as described previously (Rodak et al., J. Neurosurg. 102, 1055-1068, 2005). CSCs were cultured for 7 days and subsequently exposed to taurolidine, taurultam or temozolamide for 24 hours. The number of remaining adherent cells were stained (crystal violet or Alamar Blue) and quantified by absorbance measurements (540 nm). Cell survival was expressed as the percentage of cells surviving relative to the number of cells surviving in untreated control cultures. […]\nThe mouse SMA560 glioma cell line was used to provide tumor bulk cells and CSCs. Following incubation of SMA560 bulk cells with various concentrations of taurolidine and taurultam (6.25, 12.5, 25, 50, 100, 200 μg/ml), cytotoxicity was determined after 24 h and 48 h of incubation."}, "[5]": {"system": "murine SMA560 glioma cancer stem cells (CSC)", "assay": "Cytotoxicity assay in murine SMA560 glioma cancer stem cells", "format": "cell-based, mouse", "details": "for sensitivity of CSCs relative to corresponding glioma bulk cells, based on EC50: murine SMA 560 CSCs vs bulk cells", "experimental": "as §1\n(§2) Bulk glioma tumor cells were cultured and incubated with taurolidine or taurultam for 24h or 48h as described previously (Rodak et al., J. Neurosurg. 102, 1055-1068, 2005). CSCs were cultured for 7 days and subsequently exposed to taurolidine, taurultam or temozolamide for 24 hours. The number of remaining adherent cells were stained (crystal violet or Alamar Blue) and quantified by absorbance measurements (540 nm). Cell survival was expressed as the percentage of cells surviving relative to the number of cells surviving in untreated control cultures. The results are given as % killing rate or EC50 as the dose required for half-maximal cytotoxicity.\nMouse CSCs were generated from the SMA560 glioma cell line and cultured for 7 days. The CSCs were treated with the same concentration of taurolidine and taurultam as above and cytotoxicity was determined after 24 hours."}, "[6]": {"system": "human glioblastoma bulk cells", "details": "cited from earlier work"}, "[7]": {"system": "cancer stem cells (CSC) derived from four glioblastoma patients", "format": "cell-based, human", "experimental": "as §1, §2\nCSCs were isolated from glioblastoma tissue resected from four patients. The same range of concentrations of taurolidine and taurultam was applied as above and the cytotoxicity was measured after 24 hours of incubation with drug. […]"}, "[8]": {"details": "measured in patients; cited from earlier work"}}}
{"smiles": "O=S1(=O)CCN(CN2COCCS2(=O)=O)CN1", "note": "[B1]", "values": [{"measurement": "efficacy in treating cancers in patients", "setting": "[1]", "value": "effective in treating such cancers"}]}
{"smiles": "O=S1(=O)CCNCO1", "note": "[A1]", "values": [{"measurement": "efficacy in treating cancers in patients", "setting": "[1]", "value": "effective in treating such cancers"}]}
{"smiles": "O=S1(=O)CCOCO1", "note": "[A3]", "values": [{"measurement": "efficacy in treating cancers in patients", "setting": "[1]", "value": "effective in treating such cancers"}]}
{"smiles": "O=S1(=O)CCOCN1", "note": "[Compound 2250, Tetrahydro1,4,5-oxathiazin-4-dioxid]", "values": [{"measurement": "OD (absorbance at 540 nm)", "setting": "[2]; 4 μg/ml", "value": 1.477}, {"measurement": "OD (absorbance at 540 nm)", "setting": "[2]; 8 μg/ml", "value": 1.527}, {"measurement": "OD (absorbance at 540 nm)", "setting": "[2]; 15.5 μg/ml", "value": 1.482}, {"measurement": "OD (absorbance at 540 nm)", "setting": "[2]; 31 μg/ml", "value": 1.482}, {"measurement": "OD (absorbance at 540 nm)", "setting": "[2]; 62.5 μg/ml", "value": 0.372}, {"measurement": "OD (absorbance at 540 nm)", "setting": "[2]; 125 μg/ml", "value": 0.199}, {"measurement": "OD (absorbance at 540 nm)", "setting": "[2]; 250 μg/ml", "value": 0.120}, {"measurement": "OD (absorbance at 540 nm)", "setting": "[2]; 500 μg/ml", "value": 0.141}, {"measurement": "OD (absorbance at 540 nm)", "setting": "[2]; 1000 μg/ml", "value": 0.189}, {"measurement": "efficacy in treating cancers in patients", "setting": "[1]", "value": "effective in treating such cancers"}, {"measurement": "effect on tumor cell morphology", "setting": "[3]", "value": "causes blebbing of tumor cells"}]}
{"smiles": "CN1COCCS1(=O)=O", "note": "[Compound 2255]", "values": [{"measurement": "efficacy in treating cancers in patients", "setting": "[1]", "value": "effective in treating such cancers"}]}
{"smiles": "O=S1(=O)CCOCN1CN1COCCS1(=O)=O", "note": "[Compound 2245]", "values": [{"measurement": "efficacy in treating cancers in patients", "setting": "[1]", "value": "effective in treating such cancers"}]}
{"smiles": "O=S1(=O)CCN(CN2CCS(=O)(=O)OC2)CO1", "note": "[B3]", "values": [{"measurement": "efficacy in treating cancers in patients", "setting": "[1]", "value": "effective in treating such cancers"}]}
{"smiles": "O=S1(=O)CCN(CN2CCS(=O)(=O)OC2)CN1", "note": "[B2]", "values": [{"measurement": "efficacy in treating cancers in patients", "setting": "[1]", "value": "effective in treating such cancers"}]}
{"smiles": "O=S1(=O)CCN(CN2CCS(=O)(=O)NC2)CN1", "note": "[Taurolidine, taurolidine]", "values": [{"measurement": "OD (absorbance at 540 nm)", "setting": "[2]; 4 μg/ml", "value": 1.530}, {"measurement": "OD (absorbance at 540 nm)", "setting": "[2]; 8 μg/ml", "value": 1.478}, {"measurement": "OD (absorbance at 540 nm)", "setting": "[2]; 15.5 μg/ml", "value": 1.434}, {"measurement": "OD (absorbance at 540 nm)", "setting": "[2]; 31 μg/ml", "value": 1.132}, {"measurement": "OD (absorbance at 540 nm)", "setting": "[2]; 62.5 μg/ml", "value": 0.317}, {"measurement": "OD (absorbance at 540 nm)", "setting": "[2]; 125 μg/ml", "value": 0.305}, {"measurement": "OD (absorbance at 540 nm)", "setting": "[2]; 250 μg/ml", "value": 0.165}, {"measurement": "OD (absorbance at 540 nm)", "setting": "[2]; 500 μg/ml", "value": 0.098}, {"measurement": "OD (absorbance at 540 nm)", "setting": "[2]; 1000 μg/ml", "value": 0.109}, {"measurement": "EC50", "setting": "[4]; Mus musculus, SMA 560 bulk cells, no major difference between 24 h and 48 h", "value": 34.6, "unit": "µg/mL"}, {"measurement": "sensitivity of CSCs relative to corresponding glioma bulk cells, based on EC50", "setting": "[5]", "value": "about 3 fold"}, {"measurement": "EC50 cytotoxicity", "setting": "[6]", "value": "~50", "unit": "µg/mL"}]}
{"smiles": "O=S1(=O)CCNCN1", "note": "[Taurultam, taurultam]", "values": [{"measurement": "EC50 cytotoxicity", "setting": "[4]", "value": 19.3, "unit": "µg/mL"}, {"measurement": "EC50 cytotoxicity", "setting": "[5]", "value": 10, "unit": "µg/mL"}, {"measurement": "sensitivity of CSCs relative to corresponding glioma bulk cells, based on EC50", "setting": "[5]", "value": "~2", "unit": "fold"}, {"measurement": "EC50 cytotoxicity", "setting": "[6]", "value": "~50", "unit": "µg/mL"}]}
{"smiles": "Cn1nnc2c(C(N)=O)ncn2c1=O", "note": "[Temozolamide, temozolamide]", "values": [{"measurement": "Cytotoxicity EC50 24 h, Mean ± SD", "setting": "[7]", "value": "68.5 ± 26", "unit": "µg/mL"}, {"measurement": "peak plasma levels", "setting": "[8]", "value": 13.7, "unit": "µg/mL"}]}
